# In US4897406A, “Rhodanine derivatives and pharmaceutical compositions” (Nisshin Flour Milling Co., Ltd., priority 1987, dated 1990):
# What was measured:
# [1] = tested on: excised bronchi of guinea pigs by the action of leukotriene D4; test: Inhibitory activity on leukotrienes (contraction induced by leukotriene D4 in excised guinea pig bronchi); conditions: Conc. 10^-5 M, treatment before 10 minutes
# Protocol: The compounds were evaluated for inhibitory activity on leukotrienes in the following test.
# In this test, contraction was induced in excised bronchi of guinea pigs by the action of leukotriene D4, and inhibitory action of the present compounds after treatment before 10 minutes was measured and recorded via a transducer.
# SRS-A = test: Inhibitory activity on biosynthesis and release of chemical mediator (SRS-A), bioassay using excised ileum; set-up: species or system guinea pigs; conditions: Conc. 10^-5 M
# Protocol: The compounds were evaluated for inhibitory activity on biosynthesis and release of a chemical mediator according to the method described by S. Watanabe-Kohno et al [J. Immunol., 125, 946 (1980)] and J. Augastein et al [Nature, 245, 215 (1973)]. In this test, SRS-A was used as a chemical mediator.
# The chemical mediator contained in the reaction solution was determined according to bioassay using excised ileum of guinea pigs.
# Percent Inhibition (%)=(1-A'/A)×100
# A'=contraction level by the reaction solution treated with test compound
# A=contraction level by the control reaction solution
# [2] = tested on: contraction of excised bronchi of guinea pigs by histamine; test: Inhibition of contraction of excised bronchi of guinea pigs by histamine; conditions: 10^-5 M
# PGF2α = test: Inhibition of contraction of excised bronchi of guinea pigs by PGF2α; conditions: 10^-5 M
# rats = test: Toxicity to rats by oral administration; type: in vivo; conditions: 1000 mg/kg by oral administration
Compound,Percent Inhibition (inhibitory activity on leukotrienes) [1],Percent Inhibition (biosynthesis and release of chemical mediator) (SRS-A),inhibitory activity on contraction by histamine [2],inhibitory activity on contraction by PGF2α (PGF2α),mortality (rats)
"COc1ccc(C=CC(C)=C2SC(=S)NC2=O)cc1OC (single isomer, unassigned) [Isomer B of Example 1]",82.4%,58.0%,60-90%,60-90%,
"CCCC(C=Cc1ccc(C(=O)O)cc1)=C1SC(=S)NC1=O (single isomer, unassigned) [Isomer B of Example 17, 4-[3-(4-Oxo-2-thioxo-5-thiazolidinylidene)-1-hexen-1-yl]benzoic acid]",79.8%,,,,
"CCCC(C=Cc1ccc(C(=O)O)cc1)=C1SC(=S)NC1=O (single isomer, unassigned) [Isomer A of Example 17, 4-[3-(4-Oxo-2-thioxo-5-thiazolidinylidene)-1-hexen-1-yl]benzoic acid]",84.7%,,,,
"CCOC(=O)CCC(C=Cc1ccc(OC)c(OC)c1)=C1SC(=S)NC1=O [Compound of Example 14, Ethyl 6-(3,4-dimethoxyphenyl)-4-(4-oxo-2-thioxo-5-thiazolidinylidene)-5-hexenoate]",98.1%,,60-90%,60-90%,
"CCOC(=O)CCCC(C=Cc1ccc(OC)c(OC)c1)=C1SC(=S)NC1=O [Ethyl ester compound of Example 19, ethyl 7(3,4-dimethoxyphenyl)-5-(4-oxo-2-thioxo-5-thiazolidinilydene)-6-heptenoate]",90.5%,,,,
"COc1ccc(CCC(C)=C2SC(=S)NC2=O)cc1OC (single isomer, unassigned) [Isomer B of Example 12, 5-[3-(3,4-Dimethoxyphenyl)-1-methylpropylidene]-4-oxo-2-thioxothiazolidine]",97.9%,70.6%,60-90%,60-90%,no mortality was observed
"CC(C=Cc1cccs1)=C1SC(=S)NC1=O (single isomer, unassigned) [Isomer B of Example 15, 5-[3-(2-Thienyl)-1-methyl-2-propenylidene]-4-oxo-2-thioxothiazolidine]",,,60-90%,60-90%,
"COc1ccc(CCC(C)=C2SC(=S)NC2=O)cc1OC (single isomer, unassigned) [Isomer A of Example 12, 5-[3-(3,4-Dimethoxyphenyl)-1-methylpropylidene]-4-oxo-2-thioxothiazolidine]",100.0%,76.2%,60-90%,60-90%,no mortality was observed
"COc1ccc(C=CC(CCCC(=O)O)=C2SC(=S)NC2=O)cc1OC (single isomer, unassigned) [Isomer B of Example 19, 7-(3,4-dimethoxyphenyl)-5-(4-oxo-2-thioxo-5-thiazolidinilydene)-6-heptenoic acid]",85.1%,,,,
